Five compounds from PubChem BioAssay (NCI) can be followed below.

Test systems include OVCAR-5 ovarian; HT29 colon; CCRF-CEM leukemia; TK-10 renal; HOP-92 NSCLC; MCF7 breast; SK-MEL-28 melanoma; A549 NSCLC; IGROV1 ovarian; DU-145 prostate.
What all share (experiment): NCI tumour cell line growth inhibition, 48 h

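Compound exposure: 48 hours, 5 concentrations, 96-well plates. GI50 is the concentration that inhibits growth by half. TGI: total growth inhibition.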 Bounds are passed on as bounds.

Turning to `COc1ccc(C2CC(c3cccc(OC)c3)=NN2C(=O)c2cc(OC)c(OC)c(OC)c2)cc1` (centres undefined), the GI50 in the test on OVCAR-5 ovarian is greater than 21.2 µM; in the test on HT29 colon it was 0.507 µM; in the test with CCRF-CEM leukemia it was 1.84 µM; in the test on HOP-92 NSCLC, 1.04 µM; in the test on MCF7 breast, 0.367 µM; with SK-MEL-28 melanoma, 12.5 µM. The GI50 with A549 NSCLC was 2.25 µM; in the test on IGROV1 ovarian, 1.49 µM; with DU-145 prostate, 2.66 µM. Moreover, the TGI in the test on OVCAR-5 ovarian was greater than 100 µM; in the test with HT29 colon it was greater than 100 µM; in the test on CCRF-CEM leukemia it was greater than 29.6 µM; in the test with TK-10 renal it was greater than 100 µM; with HOP-92 NSCLC, greater than 100 µM; with MCF7 breast, greater than 100 µM. The TGI in the test on SK-MEL-28 melanoma is greater than 100 µM; in the test on A549 NSCLC, greater than 100 µM; in the test with IGROV1 ovarian it was greater than 100 µM; in the test on DU-145 prostate, greater than 41.6 µM.
As for `O=C(c1ccccc1)c1ccc(O)c2ncccc12`, the GI50 was 4.87 µM in the test with OVCAR-5 ovarian; 10.1 µM in the test with HT29 colon; 3.64 µM in the test with CCRF-CEM leukemia; 6.99 µM in the test on TK-10 renal; 2.89 µM with HOP-92 NSCLC; 2.93 µM in the test with MCF7 breast. The GI50 in the test on SK-MEL-28 melanoma was 14.6 µM; in the test on A549 NSCLC, 9.02 µM; in the test with IGROV1 ovarian, 2.4 µM; in the test with DU-145 prostate it was 5.72 µM. Also, the TGI in the test on OVCAR-5 ovarian is 22.3 µM; in the test on HT29 colon, greater than 100 µM; with CCRF-CEM leukemia, greater than 100 µM; in the test with TK-10 renal, greater than 100 µM; with HOP-92 NSCLC, 16.5 µM; in the test on MCF7 breast it was 9.08 µM. The TGI is greater than 100 µM in the test on SK-MEL-28 melanoma, greater than 100 µM with A549 NSCLC, 11.9 µM in the test on IGROV1 ovarian and 27.6 µM in the test with DU-145 prostate.
Turning to `CN(C)CCCN1c2ccc(O)cc2Sc2ccc(Cl)cc21`, the TGI in the test on OVCAR-5 ovarian was 30.8 µM; in the test on HT29 colon, 14.7 µM; in the test with CCRF-CEM leukemia it was 22.2 µM; in the test with TK-10 renal it was 24.9 µM; in the test on HOP-92 NSCLC, 17.2 µM; in the test on MCF7 breast, 26.5 µM. For the same compound, the TGI in the test with SK-MEL-28 melanoma worked out at 24.7 µM; with A549 NSCLC, 28.6 µM; with IGROV1 ovarian, 22 µM; in the test on DU-145 prostate, 31.8 µM.
On to `CC(=O)[O][Hg][CH2]C1(C)COC(C)([CH2][Hg][O]C(C)=O)CO1` (centres undefined), for which the GI50 in the test with OVCAR-5 ovarian is greater than 49.2 µM; in the test with HT29 colon, 6.67 µM; in the test on CCRF-CEM leukemia, 0.306 µM; in the test with TK-10 renal, 2.29 µM; in the test on HOP-92 NSCLC, 5.62 µM; with MCF7 breast it was 0.646 µM. In addition, the GI50 is 1.64 µM with SK-MEL-28 melanoma, 7.79 µM with A549 NSCLC, 2.35 µM in the test on IGROV1 ovarian and 10.4 µM in the test with DU-145 prostate. The TGI was greater than 63.8 µM in the test with OVCAR-5 ovarian; greater than 59.2 µM in the test with HT29 colon; 1.72 µM with CCRF-CEM leukemia; 6.2 µM with TK-10 renal; 19.1 µM in the test with HOP-92 NSCLC; 2.32 µM with MCF7 breast. Besides, the TGI was found to be 3.06 µM in the test with SK-MEL-28 melanoma, 38.4 µM with A549 NSCLC, 7.12 µM in the test with IGROV1 ovarian and 23.1 µM in the test on DU-145 prostate.
For `CNC(C)[C@H]1CCC2C3CCC4C[C@@H](N(C)C(=O)c5ccccc5)CC[C@]4(C)C3CC[C@@]21C` (some centres undefined), the GI50 in the test on OVCAR-5 ovarian was 2.4 µM; in the test with HT29 colon, 0.291 µM; in the test with CCRF-CEM leukemia, 0.763 µM; with TK-10 renal, 2.16 µM; in the test with HOP-92 NSCLC it was 0.384 µM; in the test with MCF7 breast it was 0.94 µM. The GI50 was 1.36 µM in the test on SK-MEL-28 melanoma, 2.31 µM in the test on A549 NSCLC, 1.96 µM in the test on IGROV1 ovarian and 3.46 µM in the test on DU-145 prostate. Besides, the TGI in the test on OVCAR-5 ovarian was 14.8 µM; with HT29 colon, 1.23 µM; in the test on CCRF-CEM leukemia it was 3.4 µM; in the test on TK-10 renal it was 7.83 µM; in the test with HOP-92 NSCLC it was 3.52 µM; in the test with MCF7 breast, 3.35 µM. The TGI with SK-MEL-28 melanoma stood at 2.9 µM; in the test on A549 NSCLC, 7.29 µM; in the test on IGROV1 ovarian, 7.73 µM; in the test on DU-145 prostate, 16.6 µM.
